Test results reported in US20060110333A1 (priority 2002, published 2006).

Test: Plasma buprenorphine concentration after single administration (LC-MS/MS)
Conditions: 0.1 mg/kg in terms of buprenorphine, cynomolgus monkey

Q: Which results are given for `CO[C@@]12CC[C@@]3(C[C@@H]1[C@](C)(O)C(C)(C)C)[C@H]1Cc4ccc(O)c5c4[C@@]3(CCN1CC1CC1)[C@H]2O5.Cl` [Comparative Example 2, buprenorphine hydrochloride]?
A: Plasma buprenorphine concentration (0 min, mean ± SD, intravenous): 0 ng/mL; Plasma buprenorphine concentration (10 min, Animal 1, intravenous): 41.40 ng/mL; Plasma buprenorphine concentration (10 min, Animal 2, intravenous): 32.16 ng/mL; Plasma buprenorphine concentration (10 min, Animal 3, intravenous): 41.33 ng/mL; Plasma buprenorphine concentration (10 min, mean ± SD, intravenous): 38.30 ± 5.31 ng/mL; Plasma buprenorphine concentration (30 min, Animal 1, intravenous): 32.83 ng/mL; Plasma buprenorphine concentration (30 min, Animal 2, intravenous): 18.02 ng/mL; Plasma buprenorphine concentration (30 min, Animal 3, intravenous): 33.53 ng/mL; Plasma buprenorphine concentration (30 min, mean ± SD, intravenous): 28.12 ± 8.76 ng/mL; Plasma buprenorphine concentration (60 min, Animal 1, intravenous): 16.85 ng/mL; Plasma buprenorphine concentration (60 min, Animal 2, intravenous): 16.45 ng/mL; Plasma buprenorphine concentration (60 min, Animal 3, intravenous): 26.51 ng/mL; Plasma buprenorphine concentration (60 min, mean ± SD, intravenous): 19.94 ± 5.70 ng/mL; Plasma buprenorphine concentration (120 min, Animal 1, intravenous): 8.27 ng/mL; Plasma buprenorphine concentration (120 min, Animal 2, intravenous): 9.34 ng/mL; Plasma buprenorphine concentration (120 min, Animal 3, intravenous): 16.13 ng/mL; Plasma buprenorphine concentration (120 min, mean ± SD, intravenous): 11.25 ± 4.26 ng/mL; Plasma buprenorphine concentration (240 min, Animal 1, intravenous): 3.78 ng/mL; Plasma buprenorphine concentration (240 min, Animal 2, intravenous): 4.55 ng/mL; Plasma buprenorphine concentration (240 min, Animal 3, intravenous): 7.05 ng/mL; Plasma buprenorphine concentration (240 min, mean ± SD, intravenous): 5.13 ± 1.71 ng/mL; Plasma buprenorphine concentration (480 min, Animal 1, intravenous): 1.46 ng/mL; Plasma buprenorphine concentration (480 min, Animal 2, intravenous): 0.97 ng/mL; Plasma buprenorphine concentration (480 min, Animal 3, intravenous): 2.00 ng/mL; Plasma buprenorphine concentration (480 min, mean ± SD, intravenous): 1.48 ± 0.52 ng/mL
